Test results published in patent US11541028B2, “Peptide pharmaceuticals for treatment of NASH and other disorders” (Mederis Diabetes LLC, priority 2018, dated 2023).
Numbered stars: 1 amine (or outer) side, 2 acyl side, 3 side chain; on linkers, the order of the positions; unused ones are H or OH. Bridge positions count the residues as written; N and C are the ends. Square brackets hold non-standard residues; d marks the D form. Side chains are listed from the residue outwards. Peptide text beside a SMILES is read from it. * marks the point of attachment. βGlcA(1-O-hexadecyl) = CCCCCCCCCCCCCCCCO[C@@H]1O[C@H](C(=O)*)[C@@H](O)[C@H](O)[C@H]1O; GlcA(1β-O-tetradecyl) = CCCCCCCCCCCCCCO[C@@H]1O[C@H](C(=O)*)[C@@H](O)[C@H](O)[C@H]1O; γGlu = O=C(O)[C@H](CCC(=O)[*:2])N[*:1]; εLys = N[C@@H](CCCCN[*:1])C(=O)[*:2]; Aib = CC(C)(N)C(=O)O

Columns and labels:
human glucagon receptor = molecular target: T1, human glucagon receptor (Homo sapiens, UniProt P47871); assay: DiscoveRx LeadHunter cellular assay, cAMP stimulation, glucagon receptor in CHO cells; assay type: cell-based
T1 construct: host or cells: CHO cells
T1 sequence (P47871 26-477): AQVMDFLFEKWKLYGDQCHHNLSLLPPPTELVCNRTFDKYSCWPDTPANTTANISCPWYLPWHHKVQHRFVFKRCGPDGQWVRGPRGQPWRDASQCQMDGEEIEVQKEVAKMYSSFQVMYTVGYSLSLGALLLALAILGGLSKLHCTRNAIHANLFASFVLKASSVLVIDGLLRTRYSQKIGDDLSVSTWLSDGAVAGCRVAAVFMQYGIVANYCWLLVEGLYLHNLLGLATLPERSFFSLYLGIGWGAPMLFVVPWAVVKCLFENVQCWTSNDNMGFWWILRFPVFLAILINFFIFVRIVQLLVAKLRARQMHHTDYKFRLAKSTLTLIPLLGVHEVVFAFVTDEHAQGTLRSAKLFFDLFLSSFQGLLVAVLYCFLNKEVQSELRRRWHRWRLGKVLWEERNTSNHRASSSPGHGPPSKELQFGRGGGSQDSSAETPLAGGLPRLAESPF
Protocol: (§1) A further series of cellular assays was carried out with standard cellular assays (DiscoveRx, LeadHunter assays) using readout of cAMP stimulation or arrestin activation. Compounds were weighed precisely in an amount of about 1 mg and shipped to DiscoveRx for dilution and assay.

human GLP-1 receptor = molecular target: T2, human GLP-1 receptor (Homo sapiens, UniProt P43220); assay: DiscoveRx LeadHunter cellular assay, cAMP stimulation, GLP-1 receptor in CHO cells; assay type: cell-based; conditions: human GLP-1 receptor in CHO cells (DiscoveRx); read-out: EC50 cAMP GLP-1 R
T2 construct: host or cells: CHO cells
T2 sequence (P43220 24-463): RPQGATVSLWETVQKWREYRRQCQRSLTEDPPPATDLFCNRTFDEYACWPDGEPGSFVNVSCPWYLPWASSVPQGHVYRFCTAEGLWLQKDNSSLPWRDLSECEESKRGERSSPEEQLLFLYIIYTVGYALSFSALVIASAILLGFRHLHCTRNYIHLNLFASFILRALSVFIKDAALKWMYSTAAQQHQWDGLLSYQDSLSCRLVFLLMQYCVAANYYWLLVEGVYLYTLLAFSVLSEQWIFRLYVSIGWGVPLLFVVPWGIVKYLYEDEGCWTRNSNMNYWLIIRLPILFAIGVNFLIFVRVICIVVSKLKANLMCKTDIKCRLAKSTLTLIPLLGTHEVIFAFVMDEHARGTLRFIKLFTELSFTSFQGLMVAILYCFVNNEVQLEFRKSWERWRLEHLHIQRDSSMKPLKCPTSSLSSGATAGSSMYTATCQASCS
Protocol: as §1

Compound	EC50 (human glucagon receptor) [nM]	EC50 (human GLP-1 receptor) [nM]
CCCCCCCCCCCCCCCCO[C@@H]1O[C@H](C(=O)NCCCC[C@H](NC(=O)[C@H](C)NC(=O)[C@H](C)NC(=O)[C@H](CCC(N)=O)NC(=O)[C@@H]2CCCCNC(=O)CC[C@H](NC(=O)[C@H](CO)NC(=O)[C@H](Cc3ccc(O)cc3)NC(=O)[C@H](CC(=O)O)NC(=O)[C@H](CO)NC(=O)[C@@H](NC(=O)[C@H](Cc3ccccc3)NC(=O)[C@@H](NC(=O)CNC(=O)[C@H](CCC(N)=O)NC(=O)C(C)(C)NC(=O)[C@@H](N)Cc3c[nH]cn3)[C@@H](C)O)[C@@H](C)O)C(=O)N[C@@H](Cc3ccc(O)cc3)C(=O)N[C@@H](CC(C)C)C(=O)N[C@@H](CC(=O)O)C(=O)N2)C(=O)N[C@@H](CCC(=O)O)C(=O)N[C@@H](Cc2ccccc2)C(=O)N[C@H](C(=O)N[C@@H](CCC(N)=O)C(=O)N[C@@H](Cc2c[nH]c3ccccc23)C(=O)N[C@@H](CC(C)C)C(=O)N[C@@H](CC(C)C)C(=O)N[C@@H](CCC(N)=O)C(=O)N[C@H](C(N)=O)[C@@H](C)O)[C@@H](C)CC)[C@@H](O)[C@H](O)[C@H]1O [EU-A1745] (H-H[Aib]QGTFTSDYSEYLDKQAAK(βGlcA(1-O-hexadecyl))EFIQWLLQT-NH2; lactam 12-16; N-terminus assumed)	10	1.02
CCCCCCCCCCCCCCO[C@@H]1O[C@H](C(=O)NCCCC[C@H](N)C(=O)NCCCC[C@H](NC(=O)[C@H](C)NC(=O)[C@H](C)NC(=O)[C@H](CCC(N)=O)NC(=O)[C@@H]2CCCCNC(=O)CC[C@H](NC(=O)[C@H](CO)NC(=O)[C@H](Cc3ccc(O)cc3)NC(=O)[C@H](CC(=O)O)NC(=O)[C@H](CO)NC(=O)[C@@H](NC(=O)[C@H](Cc3ccccc3)NC(=O)[C@@H](NC(=O)CNC(=O)[C@H](CCC(N)=O)NC(=O)C(C)(C)NC(=O)[C@@H](N)Cc3c[nH]cn3)[C@@H](C)O)[C@@H](C)O)C(=O)N[C@@H](Cc3ccc(O)cc3)C(=O)N[C@@H](CC(C)C)C(=O)N[C@@H](CC(=O)O)C(=O)N2)C(=O)N[C@@H](CCC(=O)O)C(=O)N[C@@H](Cc2ccccc2)C(=O)N[C@H](C(=O)N[C@@H](CCC(N)=O)C(=O)N[C@@H](Cc2c[nH]c3ccccc23)C(=O)N[C@@H](CC(C)C)C(=O)N[C@@H](CC(C)C)C(=O)N[C@@H](CCC(N)=O)C(=O)N[C@H](C(N)=O)[C@@H](C)O)[C@@H](C)CC)[C@@H](O)[C@H](O)[C@H]1O [EU-A1784] (H-H[Aib]QGTFTSDYSEYLDKQAAK([εLys-GlcA(1β-O-tetradecyl)])EFIQWLLQT-NH2; lactam 12-16; N-terminus assumed)	1.91	0.048
CCCCCCCCCCCCCCCCO[C@@H]1O[C@H](C(=O)NCCCC[C@H](N)C(=O)NCCCC[C@H](NC(=O)[C@H](C)NC(=O)[C@H](C)NC(=O)[C@H](CCC(N)=O)NC(=O)[C@@H]2CCCCNC(=O)CC[C@H](NC(=O)[C@H](CO)NC(=O)[C@H](Cc3ccc(O)cc3)NC(=O)[C@H](CC(=O)O)NC(=O)[C@H](CO)NC(=O)[C@@H](NC(=O)[C@H](Cc3ccccc3)NC(=O)[C@@H](NC(=O)CNC(=O)[C@H](CCC(N)=O)NC(=O)C(C)(C)NC(=O)[C@@H](N)Cc3c[nH]cn3)[C@@H](C)O)[C@@H](C)O)C(=O)N[C@@H](Cc3ccc(O)cc3)C(=O)N[C@@H](CC(C)C)C(=O)N[C@@H](CC(=O)O)C(=O)N2)C(=O)N[C@@H](CCC(=O)O)C(=O)N[C@@H](Cc2ccccc2)C(=O)N[C@H](C(=O)N[C@@H](CCC(N)=O)C(=O)N[C@@H](Cc2c[nH]c3ccccc23)C(=O)N[C@@H](CC(C)C)C(=O)N[C@@H](CC(C)C)C(=O)N[C@@H](CCC(N)=O)C(=O)N[C@H](C(N)=O)[C@@H](C)O)[C@@H](C)CC)[C@@H](O)[C@H](O)[C@H]1O [EU-A1785] (H-H[Aib]QGTFTSDYSEYLDKQAAK([εLys-βGlcA(1-O-hexadecyl)])EFIQWLLQT-NH2; lactam 12-16; N-terminus assumed)	5.14	0.239
CCCCCCCCCCCCCCO[C@@H]1O[C@H](C(=O)N[C@@H](CCC(=O)NCCCC[C@H](NC(=O)[C@H](C)NC(=O)[C@H](C)NC(=O)[C@H](CCC(N)=O)NC(=O)[C@@H]2CCCCNC(=O)CC[C@H](NC(=O)[C@H](CO)NC(=O)[C@H](Cc3ccc(O)cc3)NC(=O)[C@H](CC(=O)O)NC(=O)[C@H](CO)NC(=O)[C@@H](NC(=O)[C@H](Cc3ccccc3)NC(=O)[C@@H](NC(=O)CNC(=O)[C@H](CCC(N)=O)NC(=O)C(C)(C)NC(=O)[C@@H](N)Cc3c[nH]cn3)[C@@H](C)O)[C@@H](C)O)C(=O)N[C@@H](Cc3ccc(O)cc3)C(=O)N[C@@H](CC(C)C)C(=O)N[C@@H](CC(=O)O)C(=O)N2)C(=O)N[C@@H](CCC(=O)O)C(=O)N[C@@H](Cc2ccccc2)C(=O)N[C@H](C(=O)N[C@@H](CCC(N)=O)C(=O)N[C@@H](Cc2c[nH]c3ccccc23)C(=O)N[C@@H](CC(C)C)C(=O)N[C@@H](CC(C)C)C(=O)N[C@@H](CCC(N)=O)C(=O)N[C@H](C(N)=O)[C@@H](C)O)[C@@H](C)CC)C(=O)O)[C@@H](O)[C@H](O)[C@H]1O [EU-A1787] (H-H[Aib]QGTFTSDYSEYLDKQAAK([γGlu-GlcA(1β-O-tetradecyl)])EFIQWLLQT-NH2; lactam 12-16; N-terminus assumed)	10	0.246
CCCCCCCCCCCCCCCCO[C@@H]1O[C@H](C(=O)N[C@@H](CCC(=O)NCCCC[C@H](NC(=O)[C@H](C)NC(=O)[C@H](C)NC(=O)[C@H](CCC(N)=O)NC(=O)[C@@H]2CCCCNC(=O)CC[C@H](NC(=O)[C@H](CO)NC(=O)[C@H](Cc3ccc(O)cc3)NC(=O)[C@H](CC(=O)O)NC(=O)[C@H](CO)NC(=O)[C@@H](NC(=O)[C@H](Cc3ccccc3)NC(=O)[C@@H](NC(=O)CNC(=O)[C@H](CCC(N)=O)NC(=O)C(C)(C)NC(=O)[C@@H](N)Cc3c[nH]cn3)[C@@H](C)O)[C@@H](C)O)C(=O)N[C@@H](Cc3ccc(O)cc3)C(=O)N[C@@H](CC(C)C)C(=O)N[C@@H](CC(=O)O)C(=O)N2)C(=O)N[C@@H](CCC(=O)O)C(=O)N[C@@H](Cc2ccccc2)C(=O)N[C@H](C(=O)N[C@@H](CCC(N)=O)C(=O)N[C@@H](Cc2c[nH]c3ccccc23)C(=O)N[C@@H](CC(C)C)C(=O)N[C@@H](CC(C)C)C(=O)N[C@@H](CCC(N)=O)C(=O)N[C@H](C(N)=O)[C@@H](C)O)[C@@H](C)CC)C(=O)O)[C@@H](O)[C@H](O)[C@H]1O [EU-A1788] (H-H[Aib]QGTFTSDYSEYLDKQAAK([γGlu-βGlcA(1-O-hexadecyl)])EFIQWLLQT-NH2; lactam 12-16; N-terminus assumed)	10	0.232
CCCCCCCCCCCCCCO[C@@H]1O[C@H](C(=O)NCCCC[C@@H]2NC(=O)[C@@H](NC(=O)[C@H](CC(=O)O)NC(=O)[C@H](CC(C)C)NC(=O)[C@H](Cc3ccc(O)cc3)NC(=O)[C@H](CCCCN)NC(=O)[C@H](CO)NC(=O)[C@H](Cc3ccc(O)cc3)NC(=O)[C@H](CC(=O)O)NC(=O)[C@H](CO)NC(=O)[C@@H](NC(=O)[C@H](Cc3ccccc3)NC(=O)[C@@H](NC(=O)CNC(=O)[C@H](CCC(N)=O)NC(=O)C(C)(C)NC(=O)[C@@H](N)Cc3c[nH]cn3)[C@@H](C)O)[C@@H](C)O)CCC(=O)NCCCC[C@@H](C(=O)N[C@@H](CCC(=O)O)C(=O)N[C@@H](Cc3ccccc3)C(=O)N[C@H](C(=O)N[C@@H](CCC(=O)O)C(=O)N[C@@H](Cc3c[nH]c4ccccc34)C(=O)N[C@@H](CC(C)C)C(=O)N[C@@H](CC(C)C)C(=O)N[C@@H](CCC(N)=O)C(=O)N[C@H](C(N)=O)[C@@H](C)O)[C@@H](C)CC)NC(=O)[C@H](C)NC(=O)[C@H](C)NC2=O)[C@@H](O)[C@H](O)[C@H]1O [EU-A1841] (H-H[Aib]QGTFTSDYSKYLDEK(GlcA(1β-O-tetradecyl))AAKEFIEWLLQT-NH2; lactam 16-20; N-terminus assumed)	0.475	0.316
CCCCCCCCCCCCCCCCO[C@@H]1O[C@H](C(=O)NCCCC[C@@H]2NC(=O)[C@@H](NC(=O)[C@H](CC(=O)O)NC(=O)[C@H](CC(C)C)NC(=O)[C@H](Cc3ccc(O)cc3)NC(=O)[C@H](CCCCN)NC(=O)[C@H](CO)NC(=O)[C@H](Cc3ccc(O)cc3)NC(=O)[C@H](CC(=O)O)NC(=O)[C@H](CO)NC(=O)[C@@H](NC(=O)[C@H](Cc3ccccc3)NC(=O)[C@@H](NC(=O)CNC(=O)[C@H](CCC(N)=O)NC(=O)C(C)(C)NC(=O)[C@@H](N)Cc3c[nH]cn3)[C@@H](C)O)[C@@H](C)O)CCC(=O)NCCCC[C@@H](C(=O)N[C@@H](CCC(=O)O)C(=O)N[C@@H](Cc3ccccc3)C(=O)N[C@H](C(=O)N[C@@H](CCC(=O)O)C(=O)N[C@@H](Cc3c[nH]c4ccccc34)C(=O)N[C@@H](CC(C)C)C(=O)N[C@@H](CC(C)C)C(=O)N[C@@H](CCC(N)=O)C(=O)N[C@H](C(N)=O)[C@@H](C)O)[C@@H](C)CC)NC(=O)[C@H](C)NC(=O)[C@H](C)NC2=O)[C@@H](O)[C@H](O)[C@H]1O [EU-A1842] (H-H[Aib]QGTFTSDYSKYLDEK(βGlcA(1-O-hexadecyl))AAKEFIEWLLQT-NH2; lactam 16-20; N-terminus assumed)	2.11	1.21
CCCCCCCCCCCCCCO[C@@H]1O[C@H](C(=O)NCCCC[C@H](NC(=O)[C@H](C)NC(=O)[C@H](C)NC(=O)[C@H](CCC(N)=O)NC(=O)[C@H](CO)NC(=O)[C@H](CC(=O)O)NC(=O)[C@@H]2CCCCNC(=O)CC[C@H](NC(=O)[C@H](CC(=O)O)NC(=O)[C@H](CO)NC(=O)[C@@H](NC(=O)[C@H](Cc3ccccc3)NC(=O)[C@@H](NC(=O)CNC(=O)[C@H](CCC(N)=O)NC(=O)C(C)(C)NC(=O)[C@@H](N)Cc3c[nH]cn3)[C@@H](C)O)[C@@H](C)O)C(=O)N[C@@H](CO)C(=O)N[C@@H](CCCCN)C(=O)N[C@@H](Cc3ccc(O)cc3)C(=O)N2)C(=O)N[C@@H](CCC(=O)O)C(=O)N[C@@H](Cc2ccccc2)C(=O)N[C@H](C(=O)N[C@@H](CCC(=O)O)C(=O)N[C@@H](Cc2c[nH]c3ccccc23)C(=O)N[C@@H](CC(C)C)C(=O)N[C@@H](CC(C)C)C(=O)N[C@@H](CCC(N)=O)C(=O)N[C@H](C(N)=O)[C@@H](C)O)[C@@H](C)CC)[C@@H](O)[C@H](O)[C@H]1O [EU-A1847] (H-H[Aib]QGTFTSDESKYKDSQAAK(GlcA(1β-O-tetradecyl))EFIEWLLQT-NH2; lactam 10-14; N-terminus assumed)	1.95	0.032
